# Assay results published in patent publication US20120115724A1, “METHOD OF CONTROLLING UNDESIRED VEGETATION” (SYNGENTA CROP PROTECTION LLC, priority 2009, published 2012).
# Experiments:
# [1] = tested on: Alopecurus myosuroides (ALOMY); assay: Pre-emergence biological efficacy (Example 13); format: in vivo; conditions: Alopecurus myosuroides, 312 h; pre-emergence, 1,000 g/ha, after 13 days; read-out: Percentage damage ALOMY
# Outline: (§1)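 Seeds sown in standard soil in pots, kept one day in a glasshouse (24/16 °C day/night, 14 h light, 65% humidity), then sprayed with aqueous solution from acetone/water (50:50) with 0.5% Tween 20 at 250 or 1000 g/ha. Damage scored after 13 days (0 = none, 100 = total).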
# [2] = tested on: Amaranthus retroflexus (AMARE); assay: Pre-emergence biological efficacy (Example 13); format: in vivo; conditions: Amaranthus retroflexus, 312 h; pre-emergence, 1,000 g/ha, after 13 days; read-out: Percentage damage AMARE
# Outline: as §1
# [3] = tested on: Echinochloa crus-galli (ECHCG); assay: Pre-emergence biological efficacy (Example 13); format: in vivo; conditions: Echinochloa crus-galli, 312 h; pre-emergence, 1,000 g/ha, after 13 days; read-out: Percentage damage ECHCG
# Outline: as §1
# Setaria faberi (SETFA) [4] = assay: Pre-emergence biological efficacy (Example 13); format: in vivo; conditions: Setaria faberi, 312 h; pre-emergence, 1,000 g/ha, after 13 days; read-out: Percentage damage SETFA
# Outline: as §1
# Solanum nigrum (SOLNI) [5] = assay: Pre-emergence biological efficacy (Example 13); format: in vivo; conditions: Solanum nigrum, 312 h; pre-emergence, 1,000 g/ha, after 13 days; read-out: Percentage damage SOLNI
# Outline: as §1
# [6] = tested on: Alopecurus myosuroides (ALOMY); assay: Post-emergence biological efficacy (Example 14); format: in vivo; conditions: Alopecurus myosuroides, 312 h; post-emergence, 1,000 g/ha, after 13 days; read-out: Percentage damage ALOMY
# Outline: (§2)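 Pot-grown seedlings raised 8 days in a glasshouse (24/16 °C day/night, 14 h light, 65% humidity) were sprayed post-emergence with compound in acetone/water (50:50) plus 0.5% Tween 20 at 250 or 1000 g/ha. Damage was scored visually after 13 days on a 0–100 scale (100 = total kill).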
# [7] = tested on: Amaranthus retroflexus (AMARE); assay: Post-emergence biological efficacy (Example 14); format: in vivo; conditions: Amaranthus retroflexus, 312 h; post-emergence, 1,000 g/ha, after 13 days; read-out: Percentage damage AMARE
# Outline: as §2
# [8] = tested on: Echinochloa crus-galli (ECHCG); assay: Post-emergence biological efficacy (Example 14); format: in vivo; conditions: Echinochloa crus-galli, 312 h; post-emergence, 1,000 g/ha, after 13 days; read-out: Percentage damage ECHCG
# Outline: as §2
# [9] = tested on: Ipomea hederaceae (IPOHE); assay: Post-emergence biological efficacy (Example 14); format: in vivo; conditions: Ipomoea hederacea, 312 h; post-emergence, 1,000 g/ha, after 13 days; read-out: Percentage damage IPOHE
# Outline: as §2
# Setaria faberi (SETFA) [10] = assay: Post-emergence biological efficacy (Example 14); format: in vivo; conditions: Setaria faberi, 312 h; post-emergence, 1,000 g/ha, after 13 days; read-out: Percentage damage SETFA
# Outline: as §2
# Solanum nigrum (SOLNI) [11] = assay: Post-emergence biological efficacy (Example 14); format: in vivo; conditions: Solanum nigrum, 312 h; post-emergence, 1,000 g/ha, after 13 days; read-out: Percentage damage SOLNI
# Outline: as §2
# [12] = tested on: ABUTH Abutilon theophrasti; assay: Post-emergence crop and weed test (Example 15); format: in vivo; conditions: 360 h, after 15 days, read-out: Percentage damage ABUTH
# Outline: (§3)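 Scoring: percent damage at 15 days after treatment, where 100 means total damage and 0 no damage. Treatment was a foliar spray of 14-day-old potted plants, using active ingredient diluted from a 5% acetone-based emulsifiable stock into water containing 0.2% X-77 adjuvant.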
# [13] = tested on: AMARE Amaranthus retroflexus; assay: Post-emergence crop and weed test (Example 15); format: in vivo; conditions: 360 h, after 15 days, read-out: Percentage damage AMARE
# Outline: as §3
# CHEAL Chenopodium album = assay: Post-emergence crop and weed test (Example 15); format: in vivo; conditions: 360 h, after 15 days, read-out: Percentage damage CHEAL
# Outline: as §3
# [14] = tested on: EPHHL Euphorbia heterophylla; assay: Post-emergence crop and weed test (Example 15); format: in vivo; conditions: 360 h, after 15 days, read-out: Percentage damage EPHHL
# Outline: as §3
# GALAP Galium aparine = assay: Post-emergence crop and weed test (Example 15); format: in vivo; conditions: 360 h, after 15 days, read-out: Percentage damage GALAP
# Outline: as §3
# GLXMA Soybean = assay: Post-emergence crop and weed test (Example 15); format: in vivo; conditions: Glycine max, 360 h, after 15 days, read-out: Percentage damage GLXMA
# Outline: as §3
# IPOHE Ipomoea hederacea = assay: Post-emergence crop and weed test (Example 15); format: in vivo; conditions: 360 h, after 15 days, read-out: Percentage damage IPOHE
# Outline: as §3
# KCHSC Kochia scoparia = assay: Post-emergence crop and weed test (Example 15); format: in vivo; conditions: Bassia scoparia, 360 h, after 15 days, read-out: Percentage damage KCHSC
# Outline: as §3
# [15] = tested on: POLCO Polygonum convolvulus; assay: Post-emergence crop and weed test (Example 15); format: in vivo; conditions: Fallopia convolvulus, 360 h, after 15 days, read-out: Percentage damage POLCO
# Outline: as §3
# SIDSP Sida spinosa = assay: Post-emergence crop and weed test (Example 15); format: in vivo; conditions: 360 h, after 15 days, read-out: Percentage damage SIDSP
# Outline: as §3
# SINAR Sinapis arvensis = assay: Post-emergence crop and weed test (Example 15); format: in vivo; conditions: Mutarda arvensis, 360 h, after 15 days, read-out: Percentage damage SINAR
# Outline: as §3
# VERPE Veronica persica = assay: Post-emergence crop and weed test (Example 15); format: in vivo; conditions: 360 h, after 15 days, read-out: Percentage damage VERPE
# Outline: as §3
# [16] = tested on: XANST Xanthium strumarium; assay: Post-emergence crop and weed test (Example 15); format: in vivo; conditions: 360 h, after 15 days, read-out: Percentage damage XANST
# Outline: as §3
# [17] = tested on: Ipomea hederaceae (IPOHE); assay: Pre-emergence biological efficacy (Example 13); format: in vivo; conditions: Ipomoea hederacea, 312 h; pre-emergence, 1,000 g/ha, after 13 days; read-out: Percentage damage IPOHE
# Outline: as §1
structure (smiles),measurement,setting,value
C=Cc1c(N)nc(-c2ccc(Cl)c(N(C)C)c2F)nc1C(=O)OC [Compound 1],pest or weed control at 1000 g/ha,[1],80%
same,pest or weed control at 1000 g/ha,[2],100%
same,pest or weed control at 1000 g/ha,[3],90%
same,pest or weed control at 1000 g/ha,Setaria faberi (SETFA) [4],90%
same,pest or weed control at 1000 g/ha,Solanum nigrum (SOLNI) [5],100%
same,pest or weed control at 1000 g/ha,[6],90%
same,pest or weed control at 1000 g/ha,[7],100%
same,pest or weed control at 1000 g/ha,[8],100%
same,pest or weed control at 1000 g/ha,[9],90%
same,pest or weed control at 1000 g/ha,Setaria faberi (SETFA) [10],100%
same,pest or weed control at 1000 g/ha,Solanum nigrum (SOLNI) [11],100%
same,pest or weed control at 30 g/ha,[12]; 30 g/ha,90%
same,pest or weed control at 30 g/ha,[13]; 30 g/ha,100%
same,pest or weed control at 30 g/ha,CHEAL Chenopodium album; 30 g/ha,90%
same,pest or weed control at 30 g/ha,[14]; 30 g/ha,90%
same,pest or weed control at 30 g/ha,GALAP Galium aparine; 30 g/ha,20%
same,plant injury at 30 g/ha,GLXMA Soybean; 30 g/ha,0%
same,pest or weed control at 30 g/ha,IPOHE Ipomoea hederacea; 30 g/ha,40%
same,pest or weed control at 30 g/ha,KCHSC Kochia scoparia; 30 g/ha,80%
same,pest or weed control at 30 g/ha,[15]; 30 g/ha,90%
same,pest or weed control at 30 g/ha,SIDSP Sida spinosa; 30 g/ha,60%
same,pest or weed control at 30 g/ha,SINAR Sinapis arvensis; 30 g/ha,10%
same,pest or weed control at 30 g/ha,VERPE Veronica persica; 30 g/ha,80%
same,pest or weed control at 30 g/ha,[16]; 30 g/ha,100%
same,melting point,,136 to 137 °C
"C=Cc1c(NCc2ccco2)nc(-c2ccc(Cl)c(OC)c2F)nc1C(=O)OC [Compound 6, 2-(4-chloro-2-fluoro-3-methoxyphenyl)-5-ethenyl-4-(furan-2-ylmethylamino)-6-methoxycarbonylpyrimidine]",pest or weed control at 1000 g/ha,[1],70%
same,pest or weed control at 1000 g/ha,[2],100%
same,pest or weed control at 1000 g/ha,[3],80%
same,pest or weed control at 1000 g/ha,[17],90%
same,pest or weed control at 1000 g/ha,Setaria faberi (SETFA) [4],80%
same,pest or weed control at 1000 g/ha,Solanum nigrum (SOLNI) [5],100%
same,pest or weed control at 1000 g/ha,[6],80%
same,pest or weed control at 1000 g/ha,[7],100%
same,pest or weed control at 1000 g/ha,[8],80%
same,pest or weed control at 1000 g/ha,[9],80%
same,pest or weed control at 1000 g/ha,Setaria faberi (SETFA) [10],90%
same,pest or weed control at 1000 g/ha,Solanum nigrum (SOLNI) [11],90%
same,pest or weed control at 125 g/ha,[12]; 125 g/ha,80%
same,pest or weed control at 125 g/ha,[13]; 125 g/ha,100%
same,pest or weed control at 125 g/ha,CHEAL Chenopodium album; 125 g/ha,90%
same,pest or weed control at 125 g/ha,[14]; 125 g/ha,90%
same,pest or weed control at 125 g/ha,GALAP Galium aparine; 125 g/ha,70%
same,plant injury at 125 g/ha,GLXMA Soybean; 125 g/ha,10%
same,pest or weed control at 125 g/ha,IPOHE Ipomoea hederacea; 125 g/ha,80%
same,pest or weed control at 125 g/ha,KCHSC Kochia scoparia; 125 g/ha,60%
same,pest or weed control at 125 g/ha,[15]; 125 g/ha,70%
same,pest or weed control at 125 g/ha,SIDSP Sida spinosa; 125 g/ha,80%
same,pest or weed control at 125 g/ha,SINAR Sinapis arvensis; 125 g/ha,60%
same,pest or weed control at 125 g/ha,VERPE Veronica persica; 125 g/ha,70%
same,pest or weed control at 125 g/ha,[16]; 125 g/ha,100%
same,melting point,,100 to 102 °C
